Calls of active or inactive are those of the source. The calls are words filed in the database; no cut-off is given here.
Tests used:
Transcription factor p65 [1] = biological target: T1, Transcription factor p65 (Homo sapiens, UniProt Q04206); experiment: Inhibition of NF-kappa-B p65 in human THP1 cells assessed as suppression of LPS-induced TNFalpha release preincubated for 3 hrs followed by LPS stimulation by ELISA; assay type: cell-based, THP-1
Transcription factor p65 [2] = biological target: T1, Transcription factor p65; experiment: Inhibition of LPS-induced NF-kappa-B p65 phosphorylation in human THP1 cells at 50 uM preincubated for 3 hrs followed by LPS stimulation for 18 hrs; conditions: THP-1
Transcription factor p65 [3] = biological target: T1, Transcription factor p65; experiment: Inhibition of NF-kappa-B p65 in human THP1 cells assessed reduction in phosphorylated p65 levels at 50 uM preincubated for 3 hrs followed by LPS stimulation after 18 hrs by Western blot analysis; assay type: cell-based; conditions: THP-1

T1 sequence (Q04206 whole entry): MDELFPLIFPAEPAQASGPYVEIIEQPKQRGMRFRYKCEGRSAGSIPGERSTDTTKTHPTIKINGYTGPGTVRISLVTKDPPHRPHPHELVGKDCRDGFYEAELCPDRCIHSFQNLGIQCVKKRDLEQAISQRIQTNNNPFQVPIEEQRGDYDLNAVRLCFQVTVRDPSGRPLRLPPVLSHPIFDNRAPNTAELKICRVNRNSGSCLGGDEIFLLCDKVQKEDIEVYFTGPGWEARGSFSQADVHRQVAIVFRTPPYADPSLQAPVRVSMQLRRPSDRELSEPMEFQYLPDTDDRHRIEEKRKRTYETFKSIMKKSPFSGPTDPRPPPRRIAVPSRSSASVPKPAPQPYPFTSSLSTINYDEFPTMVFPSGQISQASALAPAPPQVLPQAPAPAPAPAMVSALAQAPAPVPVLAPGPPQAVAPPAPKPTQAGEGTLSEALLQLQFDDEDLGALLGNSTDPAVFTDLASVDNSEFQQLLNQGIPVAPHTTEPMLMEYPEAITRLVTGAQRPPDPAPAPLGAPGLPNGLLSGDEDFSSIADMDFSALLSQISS

IC50 (Transcription factor p65 [1]) | inhibition (Transcription factor p65 [2]) | inhibition (Transcription factor p65 [3]) | SMILES
19.3 µM | Active | Active | O=C1C[C@@H](c2ccc(O)c(O[C@@H]3O[C@H](CO)[C@@H](O)[C@H](O)[C@H]3O)c2)Oc2c1c(O)c([C@H](CCc1ccc(O[C@@H]3O[C@H](CO)[C@@H](O)[C@H](O)[C@H]3O)cc1)c1ccc(O[C@@H]3O[C@H](CO)[C@@H](O)[C@H](O)[C@H]3O)cc1O[C@@H]1O[C@H](CO)[C@@H](O)[C@H](O)[C@H]1O)c(O)c2[C@@H](CCc1ccc(O[C@@H]2O[C@H](CO)[C@@H](O)[C@H](O)[C@H]2O)cc1)c1ccc(O[C@@H]2O[C@H](CO)[C@@H](O)[C@H](O)[C@H]2O)cc1O[C@@H]1O[C@H](CO)[C@@H](O)[C@H](O)[C@H]1O
– | Active | Active | O=C1C[C@@H](c2ccc(O)c(O[C@@H]3O[C@H](CO)[C@@H](O)[C@H](O)[C@H]3O)c2)Oc2c1c(O)c([C@H](CCc1ccc(O)cc1)c1ccc(O)cc1O[C@@H]1O[C@H](CO)[C@@H](O)[C@H](O)[C@H]1O)c(O)c2[C@@H](CCc1ccc(O)cc1)c1ccc(O)cc1O[C@@H]1O[C@H](CO)[C@@H](O)[C@H](O)[C@H]1O
